# Test results taken from patent US20240358668A1, “METHODS AND CO[…] AM[…] CARD[…] USING (R)-2-AMINO-3-PH[…]” (AXSOME THERAPEUTICS, INC., priority 2021, published 2024).
# System: participants with narcolepsy or OSA
# Test: 1-year OLE study: blood pressure, parent study baseline to OLE week 40
# Assay type: in vivo, human
# Description: A 1-year open-label extension (OLE) study was performed with 374 participants to examined whether clinically significant weight loss (≥5%) in this population had favorable effects on biomarkers of cardiovascular risk compared to no such weight loss. The study measured changes in weight and BP (parent study baseline to OLE week 40) and clinical laboratory assessments (OLE baseline to week 40) in participants with narcolepsy (n=124) or OSA (n=250) who received solriamfetol at doses of 75, 150, or 300 mg/d.
# We evaluated changes in weight and BP (parent study baseline to OLE week 40) and clinical laboratory assessments (OLE baseline to week 40) in participants with narcolepsy (n=124) or OSA (n=250) from the OLE study.
# [1] = Weight loss <5% at Week 40, 75 mg/d
# [2] = Weight loss <5% at Week 40, 150 mg/d
# [3] = Weight loss <5% at Week 40, 300 mg/d
# [4] = Weight loss <5% at Week 40, all doses
# [5] = Weight loss <5% at Week 40, all doses, listed as Solri
# [6] = Weight loss <5% at Week 40, all doses, listed as solriamfetol
# [7] = Weight loss ≥5% at Week 40, 75 mg/d
# [8] = Weight loss ≥5% at Week 40, 150 mg/d
# [9] = Weight loss ≥5% at Week 40, 300 mg/d
# [10] = Weight loss ≥5% at Week 40, all doses
# [11] = Weight loss ≥5% at Week 40, all doses, listed as Solri
# [12] = Weight loss ≥5% at Week 40, all doses, listed as solriamfetol
smiles,measurement,setting,value
"NC(=O)OC[C@H](N)Cc1ccccc1 [Solriamfetol, (R)-2-amino-3-phenylpropyl carbamate]","DBP Change - Wk 40, Mean (SD)",[1],0.2 (9.5) mmHg
same,"DBP Change - Wk 40, Median",[1],0.0 mmHg
same,DBP maximum changes from baseline to week 40: Decrease ≥10%,[1],3 (14.3) n (%)
same,DBP maximum changes from baseline to week 40: Decrease ≥20%,[1],0 n (%)
same,DBP maximum changes from baseline to week 40: Decrease ≥30%,[1],0 n (%)
same,DBP maximum changes from baseline to week 40: Increase ≥10%,[1],4 (19.0) n (%)
same,DBP maximum changes from baseline to week 40: Increase ≥20%,[1],0 n (%)
same,DBP maximum changes from baseline to week 40: Increase ≥30%,[1],0 n (%)
same,"SBP Change - Wk 40, Mean (SD)",[1],−3.0 (12.3) mmHg
same,"SBP Change - Wk 40, Median",[1],0.50 mmHg
same,SBP maximum changes from baseline to week 40: Decrease ≥10%,[1],6 (28.6) n (%)
same,SBP maximum changes from baseline to week 40: Decrease ≥20%,[1],0 n (%)
same,SBP maximum changes from baseline to week 40: Decrease ≥30%,[1],0 n (%)
same,SBP maximum changes from baseline to week 40: Increase ≥10%,[1],5 (23.8) n (%)
same,SBP maximum changes from baseline to week 40: Increase ≥20%,[1],0 n (%)
same,SBP maximum changes from baseline to week 40: Increase ≥30%,[1],0 n (%)
same,"DBP Change - Wk 40, Mean (SD)",[2],2.3 (7.9) mmHg
same,"DBP Change - Wk 40, Median",[2],2.3 mmHg
same,DBP maximum changes from baseline to week 40: Decrease ≥10%,[2],4 (3.8) n (%)
same,DBP maximum changes from baseline to week 40: Decrease ≥20%,[2],1 (1.0) n (%)
same,DBP maximum changes from baseline to week 40: Decrease ≥30%,[2],0 n (%)
same,DBP maximum changes from baseline to week 40: Increase ≥10%,[2],16 (15.2) n (%)
same,DBP maximum changes from baseline to week 40: Increase ≥20%,[2],3 (2.9) n (%)
same,DBP maximum changes from baseline to week 40: Increase ≥30%,[2],0 n (%)
same,"SBP Change - Wk 40, Mean (SD)",[2],2.30 (12.1) mmHg
same,"SBP Change - Wk 40, Median",[2],2.00 mmHg
same,SBP maximum changes from baseline to week 40: Decrease ≥10%,[2],15 (14.3) n (%)
same,SBP maximum changes from baseline to week 40: Decrease ≥20%,[2],4 (3.8) n (%)
same,SBP maximum changes from baseline to week 40: Decrease ≥30%,[2],0 n (%)
same,SBP maximum changes from baseline to week 40: Increase ≥10%,[2],26 (24.8) n (%)
same,SBP maximum changes from baseline to week 40: Increase ≥20%,[2],7 (6.7) n (%)
same,SBP maximum changes from baseline to week 40: Increase ≥30%,[2],2 (1.9) n (%)
same,"DBP Change - Wk 40, Mean (SD)",[3],0.6 (9.1) mmHg
same,"DBP Change - Wk 40, Median",[3],1.5 mmHg
same,DBP maximum changes from baseline to week 40: Decrease ≥10%,[3],20 (13.2) n (%)
same,DBP maximum changes from baseline to week 40: Decrease ≥20%,[3],5 (3.3) n (%)
same,DBP maximum changes from baseline to week 40: Decrease ≥30%,[3],0 n (%)
same,DBP maximum changes from baseline to week 40: Increase ≥10%,[3],21 (13.8) n (%)
same,DBP maximum changes from baseline to week 40: Increase ≥20%,[3],2 (1.3) n (%)
same,DBP maximum changes from baseline to week 40: Increase ≥30%,[3],0 n (%)
same,"SBP Change - Wk 40, Mean (SD)",[3],−0.37 (12.7) mmHg
same,"SBP Change - Wk 40, Median",[3],0.17 mmHg
same,SBP maximum changes from baseline to week 40: Decrease ≥10%,[3],36 (23.7) n (%)
same,SBP maximum changes from baseline to week 40: Decrease ≥20%,[3],10 (6.6) n (%)
same,SBP maximum changes from baseline to week 40: Decrease ≥30%,[3],2 (1.3) n (%)
same,SBP maximum changes from baseline to week 40: Increase ≥10%,[3],33 (21.7) n (%)
same,SBP maximum changes from baseline to week 40: Increase ≥20%,[3],8 (5.3) n (%)
same,SBP maximum changes from baseline to week 40: Increase ≥30%,[3],0 n (%)
same,"DBP Change - Wk 40, Median",[4],1.4 mmHg
same,DBP maximum changes from baseline to week 40: Decrease ≥10%,[4],27 (9.7) n (%)
same,DBP maximum changes from baseline to week 40: Decrease ≥20%,[4],6 (2.2) n (%)
same,DBP maximum changes from baseline to week 40: Decrease ≥30%,[4],0 n (%)
same,DBP maximum changes from baseline to week 40: Increase ≥10%,[4],41 (14.7) n (%)
same,DBP maximum changes from baseline to week 40: Increase ≥20%,[4],5 (1.8) n (%)
same,DBP maximum changes from baseline to week 40: Increase ≥30%,[4],0 n (%)
same,"SBP Change - Wk 40, Median",[4],0.50 mmHg
same,SBP maximum changes from baseline to week 40: Decrease ≥10%,[4],57 (20.5) n (%)
same,SBP maximum changes from baseline to week 40: Decrease ≥20%,[4],14 (5.0) n (%)
same,SBP maximum changes from baseline to week 40: Decrease ≥30%,[4],2 (0.7) n (%)
same,SBP maximum changes from baseline to week 40: Increase ≥10%,[4],64 (23.0) n (%)
same,SBP maximum changes from baseline to week 40: Increase ≥20%,[4],15 (5.4) n (%)
same,SBP maximum changes from baseline to week 40: Increase ≥30%,[4],2 (0.7) n (%)
same,"DBP Change - Wk 40, Mean (SD)",[5],1.2 (8.7) mmHg
same,"SBP Change - Wk 40, Mean (SD)",[5],0.65 (12.5) mmHg
same,"DBP Change - Wk 40, Mean (SD)",[6],1.2±8.7 mmHg
same,"SBP Change - Wk 40, Mean (SD)",[6],0.65±12.5 mmHg
same,"DBP Change - Wk 40, Mean (SD)",[7],−3.8 mmHg
same,"DBP Change - Wk 40, Median",[7],−3.8 mmHg
same,DBP maximum changes from baseline to week 40: Decrease ≥10%,[7],0 n (%)
same,DBP maximum changes from baseline to week 40: Decrease ≥20%,[7],0 n (%)
same,DBP maximum changes from baseline to week 40: Decrease ≥30%,[7],0 n (%)
same,DBP maximum changes from baseline to week 40: Increase ≥10%,[7],0 n (%)
same,DBP maximum changes from baseline to week 40: Increase ≥20%,[7],0 n (%)
same,DBP maximum changes from baseline to week 40: Increase ≥30%,[7],0 n (%)
same,"SBP Change - Wk 40, Mean (SD)",[7],−3.3 mmHg
same,"SBP Change - Wk 40, Median",[7],−3.3 mmHg
same,SBP maximum changes from baseline to week 40: Decrease ≥10%,[7],0 n (%)
same,SBP maximum changes from baseline to week 40: Decrease ≥20%,[7],0 n (%)
same,SBP maximum changes from baseline to week 40: Decrease ≥30%,[7],0 n (%)
same,SBP maximum changes from baseline to week 40: Increase ≥10%,[7],0 n (%)
same,SBP maximum changes from baseline to week 40: Increase ≥20%,[7],0 n (%)
same,SBP maximum changes from baseline to week 40: Increase ≥30%,[7],0 n (%)
same,"DBP Change - Wk 40, Mean (SD)",[8],−1.9 (9.9) mmHg
same,"DBP Change - Wk 40, Median",[8],0.5 mmHg
same,DBP maximum changes from baseline to week 40: Decrease ≥10%,[8],5 (22.7) n (%)
same,DBP maximum changes from baseline to week 40: Decrease ≥20%,[8],1 (4.5) n (%)
same,DBP maximum changes from baseline to week 40: Decrease ≥30%,[8],0 n (%)
same,DBP maximum changes from baseline to week 40: Increase ≥10%,[8],3 (13.6) n (%)
same,DBP maximum changes from baseline to week 40: Increase ≥20%,[8],0 n (%)
same,DBP maximum changes from baseline to week 40: Increase ≥30%,[8],0 n (%)
same,"SBP Change - Wk 40, Mean (SD)",[8],−4.5 (13.8) mmHg
same,"SBP Change - Wk 40, Median",[8],−2.8 mmHg
same,SBP maximum changes from baseline to week 40: Decrease ≥10%,[8],7 (31.8) n (%)
same,SBP maximum changes from baseline to week 40: Decrease ≥20%,[8],1 (4.5) n (%)
same,SBP maximum changes from baseline to week 40: Decrease ≥30%,[8],1 (4.5) n (%)
same,SBP maximum changes from baseline to week 40: Increase ≥10%,[8],3 (13.6) n (%)
same,SBP maximum changes from baseline to week 40: Increase ≥20%,[8],1 (4.5) n (%)
same,SBP maximum changes from baseline to week 40: Increase ≥30%,[8],0 n (%)
same,"DBP Change - Wk 40, Mean (SD)",[9],−0.8 (8.9) mmHg
same,"DBP Change - Wk 40, Median",[9],−0.3 mmHg
same,DBP maximum changes from baseline to week 40: Decrease ≥10%,[9],11 (15.1) n (%)
same,DBP maximum changes from baseline to week 40: Decrease ≥20%,[9],3 (4.1) n (%)
same,DBP maximum changes from baseline to week 40: Decrease ≥30%,[9],0 n (%)
same,DBP maximum changes from baseline to week 40: Increase ≥10%,[9],8 (11.0) n (%)
same,DBP maximum changes from baseline to week 40: Increase ≥20%,[9],0 n (%)
same,DBP maximum changes from baseline to week 40: Increase ≥30%,[9],0 n (%)
same,"SBP Change - Wk 40, Mean (SD)",[9],−2.0 (10.8) mmHg
same,"SBP Change - Wk 40, Median",[9],−1.8 mmHg
same,SBP maximum changes from baseline to week 40: Decrease ≥10%,[9],20 (27.4) n (%)
same,SBP maximum changes from baseline to week 40: Decrease ≥20%,[9],2 (2.7) n (%)
same,SBP maximum changes from baseline to week 40: Decrease ≥30%,[9],0 n (%)
same,SBP maximum changes from baseline to week 40: Increase ≥10%,[9],13 (17.8) n (%)
same,SBP maximum changes from baseline to week 40: Increase ≥20%,[9],1 (1.4) n (%)
same,SBP maximum changes from baseline to week 40: Increase ≥30%,[9],0 n (%)
same,"DBP Change - Wk 40, Median",[10],−0.3 mmHg
same,DBP maximum changes from baseline to week 40: Decrease ≥10%,[10],16 (16.7) n (%)
same,DBP maximum changes from baseline to week 40: Decrease ≥20%,[10],4 (4.2) n (%)
same,DBP maximum changes from baseline to week 40: Decrease ≥30%,[10],0 n (%)
same,DBP maximum changes from baseline to week 40: Increase ≥10%,[10],11 (11.5) n (%)
same,DBP maximum changes from baseline to week 40: Increase ≥20%,[10],0 n (%)
same,DBP maximum changes from baseline to week 40: Increase ≥30%,[10],0 n (%)
same,"SBP Change - Wk 40, Median",[10],−2.8 mmHg
same,SBP maximum changes from baseline to week 40: Decrease ≥10%,[10],27 (28.1) n (%)
same,SBP maximum changes from baseline to week 40: Decrease ≥20%,[10],3 (3.1) n (%)
same,SBP maximum changes from baseline to week 40: Decrease ≥30%,[10],1 (1.0) n (%)
same,SBP maximum changes from baseline to week 40: Increase ≥10%,[10],16 (16.7) n (%)
same,SBP maximum changes from baseline to week 40: Increase ≥20%,[10],2 (2.1) n (%)
same,SBP maximum changes from baseline to week 40: Increase ≥30%,[10],0 n (%)
same,"DBP Change - Wk 40, Mean (SD)",[11],−1.0 (9.0) mmHg
same,"SBP Change - Wk 40, Mean (SD)",[11],−2.6 (11.4) mmHg
same,"DBP Change - Wk 40, Mean (SD)",[12],−1.0±9.0 mmHg
same,"SBP Change - Wk 40, Mean (SD)",[12],−2.6±11.4 mmHg
